This is an account of results in the NIST ThermoML archive (doi:10.1016/j.jct.2018.11.003).

The nature of this data set: cn = amount concentration of the nth substance listed, in mol/dm3. Conditions: 298.15 K, 101.3 kPa, Liquid, Taylor dispersion method.

Regarding `O=C(O)CC(O)(CC(=O)O)C(=O)O` [citric acid] + O, the binary diffusion coefficient (c1 = 0.002) was 8.48e-10 m2/s, the binary diffusion coefficient (c1 = 0.00499) turned out to be 7.9e-10 m2/s, the binary diffusion coefficient (c1 = 0.00997) worked out at 7.6e-10 m2/s and the binary diffusion coefficient (c1 = 0.05) came to 7.19e-10 m2/s.
Consider `O=C([O-])CC(O)(CC(=O)[O-])C(=O)[O-].O=C([O-])CC(O)(CC(=O)[O-])C(=O)[O-].[Ca+2].[Ca+2].[Ca+2]` [calcium citrate] + O, for which the binary diffusion coefficient amounted to 6.18e-10 m2/s (c1 = 0.0002), 6.18e-10 m2/s (c1 = 0.000402), 6.16e-10 m2/s (c1 = 0.000603) and 6.11e-10 m2/s (c1 = 0.000801).
